Measured values as given in US8426447B2, “Spiro-tricyclic ring compounds as beta-secretase modulators and methods of use” (Amgen Inc., priority 2008, dated 2013).

Tests used:
BACE1 [1] = target: T1, BACE1 (Homo sapiens, UniProt P56817); experiment: In Vitro Enzymatic BACE FRET (Fluorescence Resonance Energy Transfer) Assay; format: biochemical; settings: read-out: BACE1 FRET assay
How it was run: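 Fluorescence read-out after Tris addition raises pH to neutrality and ends the reaction. Before that, a peptide substrate carrying fluorophore and quencher across the BACE cleavage site (50 nM) is incubated with enzyme for one hour at pH 4.2 in acetate containing 10% DMSO and sub-micellar genapol.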

BACE1 [2] = target: T1, BACE1; experiment: In Vitro BACE Cell-based Assay (HEK cell assay): Aβ40 in conditioned medium of cells stably expressing Amyloid Precursor Protein, sandwich ELISA; settings: read-out: HEK cell assay
How it was run: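 HEK cells stably expressing APP were treated 24 h with compound in 10-point dose response starting at 100 or 10 μM (0.1% DMSO). Secreted Aβ40 quantified by sandwich ELISA (pAb40 capture, biotinylated 6E10 detection, europium time-resolved fluorescence), with IC50 derived from percent inhibition versus concentration.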

[3] = test system: amyloid beta peptide (A-beta) in cerebrospinal fluid and brain; experiment: In Vivo Inhibition of Beta-Secretase: reduction of A-beta levels in CSF and brain; settings: after 4 hrs, mouse or rat
Source text: Several animal models, including mouse, rat, dog, and monkey, may be used to screen for inhibition of beta-secretase activity in vivo following administration of a test compound sample. Animals used in this invention can be wild type, transgenic, or gene knockout animals. […] A separate group of animals receive 2% hydroxypropyl methylcellulose, 1% Tween80 alone, containing no test compound, and serve as a vehicle-control group. At the end of the test period, animals are sacrificed and brain tissues, plasma or cerebrospinal fluid are collected. […] Homogenates are centrifuged at 355,000 g, 4° C. for 30 minutes. CSF or brain supernatants are then analyzed for the presence of A-beta peptide by specific sandwich ELISA assays based on ECL (Electrochemiluminescence) technology. For example, rat Abeta40 is measured using biotinylated-4G8 (Signet) as a capture antibody and Fab40 (an in-house antibody specific to the C-terminal of Abeta40) as a detection antibody.

[4] = Table II, Aβ40, 24 h incubation
[5] = in vitro BACE FRET enzyme assay, IC50 class symbols
[6] = HEK cell-based assay, Aβ40 in conditioned medium, IC50 class symbols

T1 sequence (P56817 46-501, species assumed): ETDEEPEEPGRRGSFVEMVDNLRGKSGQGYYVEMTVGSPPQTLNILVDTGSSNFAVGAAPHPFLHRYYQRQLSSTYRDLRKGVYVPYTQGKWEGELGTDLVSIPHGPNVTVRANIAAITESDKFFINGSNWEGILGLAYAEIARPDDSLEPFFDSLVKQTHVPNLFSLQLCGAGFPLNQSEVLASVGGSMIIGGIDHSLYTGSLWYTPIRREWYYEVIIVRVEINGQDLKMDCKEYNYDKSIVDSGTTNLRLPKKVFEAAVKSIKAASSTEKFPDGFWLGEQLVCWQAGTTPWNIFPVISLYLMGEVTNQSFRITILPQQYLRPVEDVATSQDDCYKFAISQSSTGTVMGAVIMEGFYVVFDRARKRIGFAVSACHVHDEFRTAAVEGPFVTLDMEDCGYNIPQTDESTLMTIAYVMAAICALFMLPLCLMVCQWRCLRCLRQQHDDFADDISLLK

In the case of `NC1=N[C@]2(CO1)c1cc(OCC3CC3)ccc1Oc1ccc(-c3cncnc3)cc12` [Example 61, (4S)-2′-(cyclopropylmethoxy)-7′-(5-pyrimidinyl)spiro[1,3-oxazole-4,9′-xanthen]-2-amine], the IC50 (BACE1 [1]; Table II) is reported as < 0.1 µM, the IC50 (BACE1 [2]; [4]) is reported as < 0.1 µM and the “percent reduction in CSF A-beta levels” value ([3]; 10 mpk) is reported as 50%. The “percent reduction in brain A-beta levels” value ([3]; 10 mpk) was 18%.

For `CC(C)(C)COc1ccc2c(c1)[C@]1(COC(N)=N1)c1cc(-c3cccnc3)cnc1O2` [Example 92, (5R)-7-(2,2-dimethylpropoxy)-3-(3-pyridinyl)spiro[chromeno[2,3-b]pyridine-5,4′-[1,3]oxazol]-2′-amine], the IC50 (BACE1 [1]; Table II) was < 0.1 µM, the IC50 (BACE1 [2]; [4]) was < 0.1 µM and the “percent reduction in CSF A-beta levels” value ([3]; 30 mpk) was 62%. The “percent reduction in brain A-beta levels” value ([3]; 30 mpk) was 49%.

With `NC1=NC2(CO1)c1cc(-c3cncnc3)ccc1Oc1c(F)cc(C3=CCOCC3)cc12` (stereo in doubt) [Example 295, (R)-2′-(3,6-dihydro-2H-pyran-4-yl)-4′-fluoro-7′-(pyrimidin-5-yl)-5H-spiro[oxazole-4,9′-xanthen]-2-amine] the IC50 (BACE1 [1]; Table IV, class symbols) was < 0.1 µM, the IC50 (BACE1 [2]; Table IV, class symbols) was < 0.1 µM and the “percent reduction in CSF A-beta levels” value ([3]; 30 mpk) was 78%. The “percent reduction in brain A-beta levels” value ([3]; 30 mpk) was 66%.

In the case of `CC1(C)CN(c2ccc3c(c2)[C@]2(COC(N)=N2)c2cc(-c4cccnc4F)ccc2O3)CCO1` [Example 290, (S)-2′-(2,2-dimethylmorpholino)-7′-(2-fluoropyridin-3-yl)-5H-spiro[oxazole-4,9′-xanthen]-2-amine], the IC50 (BACE1 [1]) is reported as < 0.1 µM, the IC50 (BACE1 [2]; HEK cells) is reported as < 0.1 µM and the “percent reduction in CSF A-beta levels” value ([3]; 10 mpk) is reported as 63%. For the same molecule, the “percent reduction in brain A-beta levels” value ([3]; 10 mpk) was 33%.

`CC(C)(C)/C=C/c1cc2c(cn1)Oc1ccc(-c3cncnc3)cc1[C@@]21COC(N)=N1` [Example 291, (S,E)-3-(3,3-dimethylbut-1-enyl)-7-(pyrimidin-5-yl)-5′H-spiro[chromeno[2,3-c]pyridine-5,4′-oxazol]-2′-amine] was tested, and the IC50 (BACE1 [1]) was < 0.1 µM, the IC50 (BACE1 [2]; HEK cells) was < 0.1 µM and the “percent reduction in CSF A-beta levels” value ([3]; 10 mpk) was 62%. The “percent reduction in brain A-beta levels” value ([3]; 10 mpk) was 32%.

`Cc1cc(-c2ccc3c(c2)[C@]2(COC(N)=N2)c2cc(-c4cccnc4F)ccc2O3)on1` [Example 563, (4S)-2′-(2-fluoro-3-pyridinyl)-7′-(3-methyl-5-isoxazolyl)spiro[1,3-oxazole-4,9′-xanthen]-2-amine] was tested, and the IC50 (BACE1 [1]; Table IV, class symbols) was < 0.1 µM, the IC50 (BACE1 [2]; Table IV, class symbols) was < 0.1 µM and the “percent reduction in CSF A-beta levels” value ([3]; 10 mpk) was 54%. For the same molecule, the “percent reduction in brain A-beta levels” value ([3]; 10 mpk) was 41%.

With `CC(C)(C)COc1cnc2c(c1)[C@]1(COC(N)=N1)c1cc(-c3cccnc3)ccc1O2` [Example 744, (5S)-3-(2,2-dimethylpropoxy)-7-(3-pyridinyl)spiro[chromeno[2,3-b]pyridine-5,4′-[1,3]oxazol]-2′-amine] the “percent reduction in CSF A-beta levels” value ([3]; 10 mpk) was 37% and the “percent reduction in brain A-beta levels” value ([3]; 10 mpk) was 26%.

In the case of `COc1ccc2c(c1)C1(COC(N)=N1)c1cc(-c3cccc(Cl)c3F)ccc1O2` (centres unmarked) [Example 18, 2′-(3-chloro-2-fluorophenyl)-7′-methoxyspiro[1,3-oxazole-4,9′-xanthen]-2-amine], the IC50 (BACE1 [1]; Table 1) is reported as 1 to 5 µM and the IC50 (BACE1 [2]; Table 1, Aβ40, 24 h incubation) is reported as > 5 µM.

`CC(C)(C)C#Cc1ccc2c(c1)[C@]1(COC(N)=N1)c1cc(-c3cccnc3)ncc1O2` [compound 824] was tested, and the IC50 (BACE1 [1]; Table IV, class symbols) was < 0.1 µM and the IC50 (BACE1 [2]; Table IV, class symbols) was 0.1 to 1 µM.

`COc1ccc2c(c1)[C@@]1(COC(N)=N1)c1cc(Br)cnc1O2` [compound 680] was tested, and the IC50 (BACE1 [1]) was > 5 µM and the IC50 (BACE1 [2]) was > 5 µM.

In the case of `CC(C)(C)CC(O)c1ccc2c(c1)[C@]1(COC(N)=N1)c1cc(-c3ccc(F)nc3)ccc1O2` (some centres unmarked) [162a], the IC50 (BACE1 [1]; Table III, IC50's in uM ranges) is reported as 0.1 to 1 µM and the IC50 (BACE1 [2]; Table III, IC50's in uM ranges) is reported as 0.1 to 1 µM.

`CC(C)N1CC=C(c2ccc3c(c2)[C@]2(COC(N)=N2)c2cc(-c4cncnc4)ccc2O3)CC1` [compound 714] was tested, and the IC50 (BACE1 [1]) was 0.1 to 1 µM and the IC50 (BACE1 [2]) was < 0.1 µM.

`Cc1ccc2c(c1)Oc1ccc(-c3ccccc3Cl)cc1C21COC(N)=N1` (centres unmarked) [Example 29, 2′-(2-chlorophenyl)-6′-methylspiro[1,3-oxazole-4,9′-xanthen]-2-amine] was tested, and the IC50 (BACE1 [1]; Table 1) was > 5 µM and the IC50 (BACE1 [2]; Table 1, Aβ40, 24 h incubation) was > 5 µM.

With `NC1=N[C@@]2(CO1)c1cc(-c3cccnc3F)ccc1Oc1c(F)cc(C3CCOCC3)cc12` [compound 385, (4S)-4′-fluoro-7′-(2-fluoro-3-pyridinyl)-2′-(tetrahydro-2H-pyran-4-yl)spiro[1,3-oxazole-4,9′-xanthen]-2-amine] the IC50 (BACE1 [1]; [5]) was < 0.1 µM and the IC50 (BACE1 [2]; [6]) was < 0.1 µM.

For `CC(C)(C)/C=C/c1cc2c(cn1)Oc1ccc(-c3cccnc3)cc1[C@@]21COC(N)=N1` [compound 397], the IC50 (BACE1 [1]; [5]) was < 0.1 µM and the IC50 (BACE1 [2]; [6]) was < 0.1 µM.

`N#Cc1ccc(-n2ccc3c(c2=O)[C@@]2(COC(N)=N2)c2cc(-c4cccnc4)ccc2O3)cc1` [compound 523] gave an IC50 (BACE1 [1]) of 1 to 5 µM and an IC50 (BACE1 [2]; HEK cells) of 1 to 5 µM.

With `CC(C)(C)C#Cc1cnc2c(c1)[C@]1(COC(N)=N1)c1cc(-c3cnccn3)ccc1O2` [compound 654] the IC50 (BACE1 [1]; Table IV, class symbols) was < 0.1 µM and the IC50 (BACE1 [2]; Table IV, class symbols) was < 0.1 µM.

`CC(C)(C)OC(=O)CCc1ccc2c(c1)[C@]1(COC(N)=N1)c1cc(-c3cncnc3)ccc1O2` [compound 826] was tested, and the IC50 (BACE1 [1]; Table IV, class symbols) was 0.1 to 1 µM and the IC50 (BACE1 [2]; Table IV, class symbols) was 1 to 5 µM.

With `COC(C)(C)C#Cc1cnc2c(c1)[C@@]1(COC(N)=N1)c1cc(-c3cnccn3)ccc1O2` [compound 694] the IC50 (BACE1 [1]) was 1 to 5 µM and the IC50 (BACE1 [2]) was > 5 µM.

Molecule `CC(C)(C)COc1ccc2c(c1)[C@]1(COC(N)=N1)c1cc(C(=O)N3CCCCC3)ccc1O2` [compound 873] has an IC50 (BACE1 [1]; Table IV, class symbols) of 0.1 to 1 µM and an IC50 (BACE1 [2]; Table IV, class symbols) of 0.1 to 1 µM.

`CC1(C)Cc2cc(-c3ccc4c(c3)[C@]3(COC(N)=N3)c3cc(-c5cncnc5)ccc3O4)ccc2O1` [compound 841] was tested, and the IC50 (BACE1 [1]; Table IV, class symbols) was < 0.1 µM and the IC50 (BACE1 [2]; Table IV, class symbols) was 0.1 to 1 µM.

With `NC1=N[C@@]2(CO1)c1cc(-c3cccnc3)ccc1Oc1cnc(/C=C/C3CC3)cc12` [compound 728] the IC50 (BACE1 [1]) was < 0.1 µM and the IC50 (BACE1 [2]) was < 0.1 µM.

`C[C@](O)(C#Cc1ccc2c(c1)[C@]1(COC(N)=N1)c1cc(-c3cccnc3)ccc1O2)C(F)(F)F` [compound 698] was tested, and the IC50 (BACE1 [1]) was < 0.1 µM and the IC50 (BACE1 [2]) was < 0.1 µM.

`COc1ccc2c(c1)[C@@]1(COC(N)=N1)c1c(ccc(-c3cncnc3)c1F)O2` [compound 899] was tested, and the IC50 (BACE1 [1]; Table IV, class symbols) was 0.1 to 1 µM and the IC50 (BACE1 [2]; Table IV, class symbols) was 1 to 5 µM.

`COc1ccc2c(c1)[C@]1(COC(N)=N1)c1cc(NC(=O)c3ccccn3)ccc1O2` [compound 615] showed an IC50 (BACE1 [1]; Table IV, class symbols) of 0.1 to 1 µM and an IC50 (BACE1 [2]; Table IV, class symbols) of 0.1 to 1 µM.

With `NC1=N[C@]2(CO1)c1cc(Oc3ccccn3)ccc1Oc1ccc(-c3cncnc3)cc12` [compound 209] the IC50 (BACE1 [1]; Table III, IC50's in uM ranges) was < 0.1 µM and the IC50 (BACE1 [2]; Table III, IC50's in uM ranges) was 0.1 to 1 µM.

With `CC(C)(C#N)COc1cnc2c(c1)[C@]1(COC(N)=N1)c1cc(-c3cc(F)ccc3F)ccc1O2` [compound 407] the IC50 (BACE1 [1]; [5]) was < 0.1 µM and the IC50 (BACE1 [2]; [6]) was < 0.1 µM.

`COc1ccc2c(c1)C1(COC(N)=N1)c1cc(-c3cccnc3F)ccc1O2` (centres unmarked) [Example 16, 2′-(2-fluoro-3-pyridinyl)-7′-methoxyspiro[1,3-oxazole-4,9′-xanthen]-2-amine] gave an IC50 (BACE1 [1]; Table 1) of 1 to 5 µM and an IC50 (BACE1 [2]; Table 1, Aβ40, 24 h incubation) of 1 to 5 µM.

`NC1=N[C@@]2(CO1)c1cc(-c3cccnc3)ccc1Oc1ccc(-c3nccs3)cc12` [compound 666] was tested, and the IC50 (BACE1 [1]) was < 0.1 µM and the IC50 (BACE1 [2]) was < 0.1 µM.

Molecule `CC(=O)COc1ccc2c(c1)[C@]1(COC(N)=N1)c1cc(C#CC3CC3)ccc1O2` [compound 200] has an IC50 (BACE1 [1]; Table III, IC50's in uM ranges) of 0.1 to 1 µM and an IC50 (BACE1 [2]; Table III, IC50's in uM ranges) of 0.1 to 1 µM.

With `CC(C)(C)COc1ccc2c(c1)[C@]1(COC(N)=N1)c1cc(-c3cncnc3O)ccc1O2` [compound 884] the IC50 (BACE1 [1]; Table IV, class symbols) was 0.1 to 1 µM and the IC50 (BACE1 [2]; Table IV, class symbols) was 1 to 5 µM.
